Laboratory results taken from patent publication US20160106100A1, “MICROBICIDAL COMPOSITION COMPRISING AN ISOTHIAZOLONE AND AN AMINE OXIDE” (priority 2013, published 2016).

Key:
Format in all cases: cell-based
[1] = system: Aspergillus niger (DSM 12623); test: MIC and synergy index of MIT + N,N-Dimethyldodecan-1-amine oxide in Sabouraud glucose agar; settings: for Synergy Index (Qa/QA + Qb/QB): sole biocide
Procedure: The synergism of a combination of 2-Methyl-isothiazolinone (MIT) with N,N-Dimethyldodecan-l-amine oxide was tested. Test organisms used was the mould Aspergillus niger (DSM 12623). For the purpose of the test, mixtures containing different concentrations of MIT and N,N-Dimethyldodecan-1-amine oxide were prepared and tested for their action on Aspergillus niger. The active compound mixtures in the corresponding concentrations were introduced into selective nutrient media (Sabouraud glucose agar for Aspergillus niger and the test organisms were likewise incorporated into the agar. The cell density in the agar was in each case 3.7·10^6 spores per ml for Aspergillus niger. The incubation time is 72 hours at 25° C. This was followed by visual testing for growth of Aspergillus niger. The growth was apparent through the formation of colonies or mycelia on the surface of the agar. In this way the minimum inhibitory concentrations (MICs) of the two active compounds were determined, individually and in combination. The MIC is the concentration at which there is no formation of colonies or mycelia on the surface of the agar ( Aspergillus niger).
The synergism that occurred was presented numerically by calculation of the synergy index (SI). This calculation was made using the common method of F. C. Kull et al., Applied Microbiology, vol. 9 (1961), p. 538. SI is calculated there in accordance with the following formula:
Synergy index SI=Qa/QA+Qb/QB
If the synergy index has a value of more than 1, this means that there is an antagonism. If the synergy index adopts a value of 1, this means that the action of the two biocides is additive. If the synergy index takes on a value of below 1, this means that there is synergism of the two biocides.
Calculation of the synergy index of N,N-Dimethyldodecan-1-arnine oxide+MIT in respect of Aspergillus niger for an incubation time of 72 hours at 25° C.

[2] = system: Candida albicans (ATCC 10231); test: MIC and synergy index of MIT + N,N-Dimethyldodecan-1-amine oxide in Muller Hinton Broth; settings: for MHK: alone, 72 hours at 25° C.; for Synergistic Index / Total: single biocide alone
Procedure: Furthermore, the synergism of a combination of 2-Methyl-isothiazolinone (MIT) with N,N-Dimethyldodecan-1-amine oxide was tested using Candida albicans (ATCC 10231). For the purpose of the test, mixtures containing different concentrations of MIT and N,N-Dimethyldodecan-1-amine oxide were prepared and tested for their action on Candida albicans. The active compound mixtures in the corresponding concentrations were introduced into selective nutrient media (Muller Hinton Broth). The cell density in the broth was in each case 1.0-10^6 spores per ml. The incubation time is 72 hours at 25° C. This was followed by visual testing for growth of Candida albicans. In this way the minimum inhibitory concentrations (MICs) of the two active compounds were determined, individually and in combination. The synergism that occurred was presented numerically by calculation of the synergy index (SI).

[3] = system: Aspergillus niger; test: MIC and synergy index of ternary mixture Benzalkoniumchloride, N,N-Dimethyldodecan-1-amine oxide and MIT; settings: used alone
Procedure: In a further Experiment the synergy index of a ternary mixture of Benzalkoniumchloride, N,N-Dimethyldodecan-1-amine oxide and MIT was determined in respect of Aspergillus niger for an incubation time of 72 hours at 25 ° C.
The synergy of an active substance mixture that contains Benzalkoniumchloride in addition to N,N-Dimethyldodecan-1-amine oxide and MIT, against the microorganism Aspergillus niger is shown as in Table 4.

Compound	MIC ([1]; as sole biocide, 72 hours at 25° C.)	Synergy Index (Qa/QA + Qb/QB) [1]	MHK [2] [ppm]	Synergistic Index [2]	Total [2] [ppm]	MIC ([1]; Aspergillus niger, DSM12623, 72 h) [µg/mL]	Synergistic Index [3]	MHK ([3]; 72 hours at 25 ° C.) [ppm]
Cn1sccc1=O [MIT, 2-methylisothiazolin-3-one]	1000 (MIC) ppm	1.00	125	1.00	125			
CCCCCCCCCCCC[N+](C)(C)[O-] [N,N-Dimethyldodecan-1-amine oxide]		1.00	50	1.00	50	231		
Benzalkoniumchloride [BAC]							1.00	80
